*1 amine or outer side, *2 acyl side, *3 side chain or, on linkers, in order; H or OH if unused. Where a SMILES comes first, the peptide text is derived from it. Bridges are numbered along the chain shown (N, C = ends). Side-chain parts run from the residue outwards. [ ]: non-standard residue; d: D form. The star is where a group is joined. NH(1-deoxy-D-glucityl) = OC[C@@H](O)[C@@H](O)[C@H](O)[C@@H](O)CN*; DOTA = O=C(O)CN1CCN(CC(=O)O)CCN(CC(=O)*)CCN(CC(=O)O)CC1; Trp(5-Br) = N[C@@H](Cc1c[nH]c2ccc(Br)cc12)C(=O)O; Trp(5-Cl) = N[C@@H](Cc1c[nH]c2ccc(Cl)cc12)C(=O)O; Pyridine(2,6-diCH2) = c1cc(C[*:1])nc(C[*:2])c1; Pro(4R-NH2) = N[C@H]1CN[C@H](C(=O)O)C1; Glutaryl = O=C(CCCC(=O)[*:2])[*:1]; X1 = O=C(CN1CCC(N[*:1])CC1)[*:2]; hSer = N[C@@H](CCO)C(=O)O; Api = NC1(C(=O)O)CCNCC1; AEEA = NCCOCCOCC(=O)O

In the first assay the target is T1, GIPR (CHO-K1-hGIPR cells) (Homo sapiens, UniProt P48546).
T1 construct: host or cells: CHO-K1
T1 sequence (P48546 22-466): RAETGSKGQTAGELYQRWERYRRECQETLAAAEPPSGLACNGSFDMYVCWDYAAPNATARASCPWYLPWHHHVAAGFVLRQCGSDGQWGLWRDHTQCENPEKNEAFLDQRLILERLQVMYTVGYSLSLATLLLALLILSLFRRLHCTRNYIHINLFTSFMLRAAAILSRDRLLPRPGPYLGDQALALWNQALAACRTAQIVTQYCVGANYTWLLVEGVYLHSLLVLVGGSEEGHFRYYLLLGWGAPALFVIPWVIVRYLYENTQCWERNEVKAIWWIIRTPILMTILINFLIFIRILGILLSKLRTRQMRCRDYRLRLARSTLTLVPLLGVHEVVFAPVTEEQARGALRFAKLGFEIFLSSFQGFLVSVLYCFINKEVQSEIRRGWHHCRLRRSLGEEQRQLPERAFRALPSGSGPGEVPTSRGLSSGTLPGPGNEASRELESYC
Nature of the assay: FACS binding assay. The conditions noted are these: competition with 20 nM GIP-057, 4° C., 1 hour, read-out: pIC50 Category (converted). The method, then: In order to determine binding of compounds according to the present invention to GIPR-expressing cells, a FACS binding assay was established.
CHO-K1-hGIPR cells (GenScript Biotech, #M00486) were cultured in Ham's F12 medium (Sigma-Aldrich, #N4888) including 10% fetal calf serum (FCS), 2 mM L-glutamine, 100 U/mL penicillin, 100 μg/mL streptomycin, 200 μg/mL Zeocin and 100 μg/mL HygromycinB. Cells were detached with Accutase (Biolegend, #BLD-423201) and washed in FACS buffer (PBS including 1% FCS). Cells were diluted in FACS buffer to a final concentration of 500.000 cells per mL. 200 μL of the cell suspension were transferred to a u-shaped non-binding 96-well plate (Greiner) and cells were washed in ice-cold FACS buffer.
Cells were washed twice in FACS buffer. An additional incubation step with 1 μg/mL APC-Streptavidin (Miltenyi; #130-106-791) in 50 μL FACS buffer for 30 min on ice was performed followed by two washes with FACS buffer.
Cells were analyzed in an Attune NxT flow cytometer. Median fluorescence intensities (MFI) of the APC/Cy5-channel were calculated by Attune NxT software. MFI values were plotted against peptide concentration and four parameter logistic (4PL) curve fitting and EC50/pEC50 or IC50/pIC50 calculations were performed using ActivityBase software.
(Flow cytometry measures light scatter and fluorescence of single cells or particles in a stream.)
On to `CC[C@H](C)[C@@H]1NC(=O)[C@H](CC(C)C)NC(=O)C2(CCN(C(=O)CCCC(=O)NC[C@H](O)[C@@H](O)[C@H](O)[C@H](O)CO)CC2)NC(=O)[C@@H](NC(=O)[C@@H](CC(C)C)NC(=O)[C@H](CCC(=O)O)NC(=O)[C@@H]2C[C@@H](N)CN2C(=O)[C@H](Cc2c[nH]c3ccc(Cl)cc23)NC(=O)[C@H](Cc2c[nH]c3ccccc23)NC(=O)[C@H](CC(=O)O)NC(=O)COCCOCCNC(=O)[C@@H](CCC(=O)NC[C@H](O)[C@@H](O)[C@H](O)[C@H](O)CO)NC(=O)CN2CCN(CC(=O)O)CCN(CC(=O)O)CCN(CC(=O)O)CC2)CSCc2cccc(n2)CSC[C@@H](C(=O)NC2CCN(CC(=O)N[C@H](CCC(=O)NC[C@H](O)[C@@H](O)[C@H](O)[C@H](O)CO)C(N)=O)CC2)NC1=O` [GIP-009, DOTA-glu(AGLU)-O2Oc-Asp-Trp-5Clw-Tap-Glu-leu-[Cys(2Lut)-Apc(AGLU-Glutar)-Leu-Ile-Cys]-APAc-glu(AGLU)-NH2] ({DOTA}-[dE](NH(1-deoxy-D-glucityl))[AEEA]DW[Trp(5-Cl)][Pro(4R-NH2)]E[dL]C[Api]([Glutaryl-NH(1-deoxy-D-glucityl)])LIC[X1][dE](NH(1-deoxy-D-glucityl))-NH2; linker 9-13 via Pyridine(2,6-diCH2)), for which the IC50 is less than 10 nM.
Still for that read-out and setting: for `CC[C@H](C)[C@@H]1NC(=O)[C@H](CC(C)C)NC(=O)C2(CCN(C(=O)CCCC(=O)NC[C@H](O)[C@@H](O)[C@H](O)[C@H](O)CO)CC2)NC(=O)[C@@H](NC(=O)[C@@H](CC(C)C)NC(=O)[C@H](CCC(=O)O)NC(=O)[C@@H]2C[C@@H](N)CN2C(=O)[C@H](Cc2c[nH]c3ccc(Cl)cc23)NC(=O)[C@H](Cc2c[nH]c3ccccc23)NC(=O)[C@H](CC(=O)O)NC(=O)CN2CCC(NC(=O)CN3CCN(CC(=O)O)CCN(CC(=O)O)CCN(CC(=O)O)CC3)CC2)CSCc2cccc(n2)CSC[C@@H](C(=O)NC2CCN(CC(=O)N[C@H](CCC(=O)NC[C@H](O)[C@@H](O)[C@H](O)[C@H](O)CO)C(N)=O)CC2)NC1=O` [GIP-012, DOTA-APAc-Asp-Trp-5Clw-Hyp-Glu-leu-[Cys(2Lut)-Apc(AGLU-Glutar)-Leu-Ile-Cys]-APAc-glu(AGLU)-NH2] ({DOTA}-[X1]DW[Trp(5-Cl)][Pro(4R-NH2)]E[dL]C[Api]([Glutaryl-NH(1-deoxy-D-glucityl)])LIC[X1][dE](NH(1-deoxy-D-glucityl))-NH2; linker 8-12 via Pyridine(2,6-diCH2)) the value was less than 10 nM; for `CC[C@H](C)[C@@H]1NC(=O)[C@H](CC(C)C)NC(=O)C2(CCN(C(=O)CN3CCN(CC(=O)O)CCN(CC(=O)O)CCN(CC(=O)O)CC3)CC2)NC(=O)[C@@H](NC(=O)[C@@H](CC(C)C)NC(=O)[C@H](CCC(=O)O)NC(=O)[C@@H]2C[C@@H](N)CN2C(=O)[C@H](Cc2c[nH]c3ccc(Cl)cc23)NC(=O)[C@H](Cc2c[nH]c3ccccc23)NC(=O)[C@H](CC(=O)O)NC(=O)CN2CCC(NC(=O)CCCC(=O)NC[C@H](O)[C@@H](O)[C@H](O)[C@H](O)CO)CC2)CSCc2cccc(n2)CSC[C@@H](C(=O)NC2CCN(CC(=O)N[C@H](CCC(=O)NC[C@H](O)[C@@H](O)[C@H](O)[C@H](O)CO)C(N)=O)CC2)NC1=O` [GIP-013, AGLU-Glutar-APAc-Asp-Trp-5Clw-Tap-Glu-leu-[Cys(2Lut)-Apc(DOTA)-Leu-Ile-Cys]-APAc-glu(AGLU)-NH2] ({NH(1-deoxy-D-glucityl)-Glutaryl}-[X1]DW[Trp(5-Cl)][Pro(4R-NH2)]E[dL]C[Api](DOTA)LIC[X1][dE](NH(1-deoxy-D-glucityl))-NH2; linker 8-12 via Pyridine(2,6-diCH2)), less than 10 nM.
On the same count and under the same terms, for `CC[C@H](C)[C@@H]1NC(=O)[C@H](CC(C)C)NC(=O)C2(CCN(C(=O)CN3CCN(CC(=O)O)CCN(CC(=O)O)CCN(CC(=O)O)CC3)CC2)NC(=O)[C@@H](NC(=O)[C@@H](CC(C)C)NC(=O)[C@H](CCC(=O)O)NC(=O)[C@@H]2C[C@@H](N)CN2C(=O)[C@H](Cc2c[nH]c3ccc(Br)cc23)NC(=O)[C@H](Cc2c[nH]c3ccccc23)NC(=O)[C@H](CC(=O)O)NC(=O)CCCC(=O)NC[C@H](O)[C@@H](O)[C@H](O)[C@H](O)CO)CSCc2cccc(n2)CSC[C@@H](C(=O)NC2CCN(CC(=O)N[C@H](CCC(=O)NC[C@H](O)[C@@H](O)[C@H](O)[C@H](O)CO)C(N)=O)CC2)NC1=O` [GIP-015, AGLU-Glutar-Asp-Trp-5Brw-Tap-Glu-leu-[Cys(2Lut)-Apc(DOTA)-Leu-Ile-Cys]-APAc-glu(AGLU)-NH2] ({NH(1-deoxy-D-glucityl)-Glutaryl}-DW[Trp(5-Br)][Pro(4R-NH2)]E[dL]C[Api](DOTA)LIC[X1][dE](NH(1-deoxy-D-glucityl))-NH2; linker 7-11 via Pyridine(2,6-diCH2)) the value was less than 10 nM; for `CC[C@H](C)[C@@H]1NC(=O)[C@H](CC(C)C)NC(=O)C2(CCN(C(=O)CN3CCN(CC(=O)O)CCN(CC(=O)O)CCN(CC(=O)O)CC3)CC2)NC(=O)[C@@H](NC(=O)[C@@H](CC(C)C)NC(=O)[C@H](CCC(=O)O)NC(=O)[C@@H]2C[C@@H](N)CN2C(=O)[C@H](Cc2c[nH]c3ccc(Br)cc23)NC(=O)[C@H](Cc2c[nH]c3ccccc23)NC(=O)[C@H](CCO)NC(=O)CCCC(=O)NC[C@H](O)[C@@H](O)[C@H](O)[C@H](O)CO)CSCc2cccc(n2)CSC[C@@H](C(=O)NC2CCN(CC(=O)N[C@H](CCC(=O)NC[C@H](O)[C@@H](O)[C@H](O)[C@H](O)CO)C(N)=O)CC2)NC1=O` [GIP-016, AGLU-Glutar-Hse-Trp-5Brw-Tap-Glu-leu-[Cys(2Lut)-Apc(DOTA)-Leu-Ile-Cys]-APAc-glu(AGLU)-NH2] ({NH(1-deoxy-D-glucityl)-Glutaryl}-[hSer]W[Trp(5-Br)][Pro(4R-NH2)]E[dL]C[Api](DOTA)LIC[X1][dE](NH(1-deoxy-D-glucityl))-NH2; linker 7-11 via Pyridine(2,6-diCH2)), less than 10 nM.

Staying with this assay, now noted: pIC50 Category, competition with 20 nM GIP-057, 4° C., 1 hour.
Consider `CC[C@H](C)[C@@H]1NC(=O)[C@H](CC(C)C)NC(=O)C2(CCN(C(=O)CN3CCN(CC(=O)O)CCN(CC(=O)O)CCN(CC(=O)O)CC3)CC2)NC(=O)[C@@H](NC(=O)[C@@H](CC(C)C)NC(=O)[C@H](CCC(=O)O)NC(=O)[C@@H]2C[C@@H](N)CN2C(=O)[C@H](Cc2c[nH]c3ccc(Br)cc23)NC(=O)[C@H](Cc2c[nH]c3ccccc23)NC(=O)[C@H](CC(=O)O)NC(=O)CN2CCC(NC(=O)CCCC(=O)NC[C@H](O)[C@@H](O)[C@H](O)[C@H](O)CO)CC2)CSCc2cccc(n2)CSC[C@@H](C(=O)NC2CCN(CC(=O)N[C@H](CCC(=O)NC[C@H](O)[C@@H](O)[C@H](O)[C@H](O)CO)C(N)=O)CC2)NC1=O` [GIP-014, AGLU-Glutar-APAc-Asp-Trp-5Brw-Tap-Glu-leu-[Cys(2Lut)-Apc(DOTA)-Leu-Ile-Cys]-APAc-glu(AGLU)-NH2] ({NH(1-deoxy-D-glucityl)-Glutaryl}-[X1]DW[Trp(5-Br)][Pro(4R-NH2)]E[dL]C[Api](DOTA)LIC[X1][dE](NH(1-deoxy-D-glucityl))-NH2; linker 8-12 via Pyridine(2,6-diCH2)), for which the IC50 was less than 10 nM.

These data come from patent US20250296971A1, “GASTRIC INHIBITORY PEPTIDE RECEPTOR LIGANDS” (priority 2021, published 2025).
